Read-outs that look alike come from different tables or passages of the source.
How the values were obtained:
U87MG spheroids = assay: Antiproliferative activity, 3D spheroids, CellTiter-Glo 3D assay; format: cell-based, human; settings: for PI (phototoxicity index) 3D: IC50 dark / IC50 420 nm irradiated; for IC50: U87MG 3D spheroids, 90 min treatment, CellTiter-Glo 3D; for TMI (3D/2D): ratio of IC50 for 3D and 2D models under irradiation
Description: The antiproliferative activity of the compounds under investigation was assessed using the Sulforhodamine B (SRB) assay on both 2D cell monolayers and 3D spheroids. For the 2D cell monolayer assay, cells were seeded in 96-well tissue culture plates at a density of 3 × 10^3 cells/well in 100 μL of culture medium. Following overnight incubation in a humidified CO2 incubator, the medium was replaced, and the cells were treated with the investigated compounds in a final volume of 200 μL/well of Earle’s Balanced Salt Solution (EBSS). The cells were then exposed to the tested compounds for 1.5 h under dark conditions (5% CO2, 37 °C) and subsequently irradiated with blue light (420 nm) for 30 min at an intensity of 58 W/m^2. After treatment, the samples were washed with Phosphate-Buffered Saline (PBS) and replenished with 200 μL of culture medium. Following an additional 70-h incubation, the cells were washed with PBS, fixed with trichloroacetic acid at 4 °C for 1 h, and stained with 0.4% SRB dye for 30 min. The stained cells were dissolved with Tris (10 mM), and the cell viability was assessed by measuring the absorbance at 570 nm using an Absorbance Reader (SPARK TECAN, SCHOELLER). The absorbance readings were then converted to the percentage of control (% cell survival), and the antiproliferative effects were expressed as IC50 values, which were calculated from curves plotting cell survival (%) versus drug concentration (μM) (IC50 = the concentration of the agent that inhibits cell growth by 50%). For experiments with 3D spheroids, 2500 single cells/well were seeded on ultralow attachment U-shape 96-well plates (Corning, USA) and cultured for 72 h in 3D forming medium DMEM-F12 ham medium supplemented with growth and spheroid forming factors: 2% B27 (Thermo Fisher Scientific Inc., MA, USA), epidermal growth factor (EGF; Sigma-Aldrich, Germany, 20 ng mL^–1), fibroblast growth factor (FGF2; Sigma-Aldrich, Germany, 10 ng mL^–1), and BSA (0.15%). After the 72-h spheroid formation period, the samples were treated and irradiated as described for the 2D cultures. Subsequently, the samples were cultured in the 3D forming medium for an additional 70 h, and the antiproliferative potency of the tested compounds against spheroids was determined by assessing changes in IC50 values using the CellTiterGlo-3D assay (Promega). The luminescence signal was detected using the plate reader SPARK (Tecan, Manedorf, Switzerland), and the IC50 values were calculated from the survival curves. All experiments were conducted in triplicate to ensure the reliability and reproducibility of the results. Furthermore, the concentrations of the compounds in the medium during the treatment were verified using Flame Atomic Absorption Spectroscopy (FAAS) or Inductively Coupled Plasma Mass Spectrometry (ICP-MS).
The antiproliferative activity (IC50 valuesa) of the investigated compounds determined in 2D and 3D models of U87MG cellsb
Dark Irradiated PId Dark Irradiated PIe (3D/2D) […]
a Concentration that causes 50% inhibition of cell proliferation. b Cell monolayer or generated 3D spheroids were treated for 90 min with increasing concentrations of the investigated compounds, followed by 30 min of irradiation with blue light (420 nm; 58 Wm-2) and 70 h of drug-free incubation. c IC50 values were determined by SRB assay. d IC50 values were determined by CellTiter-Glo® 3D chemiluminescent assay. e PI - phototoxicity index was calculated as the ratio of IC50 determined under the dark conditions / IC50 determined for 420 […]
f TMI – tissue-mass index was calculated as the ratio of IC50 values determined for 3D and 2D models under irradiation conditions.

U87MG cells = assay: Antiproliferative activity, 2D monolayer, SRB assay; format: cell-based, human; settings: for PI (phototoxicity index) 2D: IC50 dark / IC50 420 nm irradiated; for IC50: U87MG 2D monolayer, 90 min treatment, SRB
Description: The antiproliferative activity of the compounds under investigation was assessed using the Sulforhodamine B (SRB) assay on both 2D cell monolayers and 3D spheroids. For the 2D cell monolayer assay, cells were seeded in 96-well tissue culture plates at a density of 3 × 10^3 cells/well in 100 μL of culture medium. Following overnight incubation in a humidified CO2 incubator, the medium was replaced, and the cells were treated with the investigated compounds in a final volume of 200 μL/well of Earle’s Balanced Salt Solution (EBSS). The cells were then exposed to the tested compounds for 1.5 h under dark conditions (5% CO2, 37 °C) and subsequently irradiated with blue light (420 nm) for 30 min at an intensity of 58 W/m^2. After treatment, the samples were washed with Phosphate-Buffered Saline (PBS) and replenished with 200 μL of culture medium. Following an additional 70-h incubation, the cells were washed with PBS, fixed with trichloroacetic acid at 4 °C for 1 h, and stained with 0.4% SRB dye for 30 min. The stained cells were dissolved with Tris (10 mM), and the cell viability was assessed by measuring the absorbance at 570 nm using an Absorbance Reader (SPARK TECAN, SCHOELLER). […] After the 72-h spheroid formation period, the samples were treated and irradiated as described for the 2D cultures. […] The luminescence signal was detected using the plate reader SPARK (Tecan, Manedorf, Switzerland), and the IC50 values were calculated from the survival curves. All experiments were conducted in triplicate to ensure the reliability and reproducibility of the results. Furthermore, the concentrations of the compounds in the medium during the treatment were verified using Flame Atomic Absorption Spectroscopy (FAAS) or Inductively Coupled Plasma Mass Spectrometry (ICP-MS). […]
drug-free incubation. c IC50 values were determined by SRB assay. d IC50 values were determined by CellTiter-Glo® 3D chemiluminescent assay. e PI - phototoxicity index was calculated as the ratio of IC50 determined under the dark conditions / IC50 determined for 420 […]
models under irradiation conditions.

[1] = Stability in the dark by UV/vis spectroscopy; format: physicochemical; settings: DMSO, water, cell culture medium (RPMI), presence of glutathione; up to 24h
Description: The stability of complex Ir10 was studied in DMSO, water (1% DMSO), and RPMI (5% DMSO) using UV/vis spectroscopy at different times in the absence and presence of GSH (10 mM) or NADH (100 μM) to mimic the cellular and physiological conditions (Figure S6).

[2] = dark, 70 h drug-free, read-out: IC50 3D Dark
[3] = 30 min blue light 420 nm 58 W m-2, 70 h drug-free, read-out: IC50 3D Irradiated
[4] = dark, 70 h drug-free incubation, read-out: IC50 2D Dark
[5] = 30 min blue light 420 nm 58 W m-2, 70 h drug-free, read-out: IC50 2D Irradiated

| Structure (SMILES) | PI (phototoxicity index) 3D (U87MG spheroids) | IC50 (U87MG spheroids; [2]) [µM] | IC50 (U87MG spheroids; [3]) [µM] | TMI (3D/2D) (U87MG spheroids) | PI (phototoxicity index) 2D (U87MG cells) | IC50 (U87MG cells; [4]) [µM] | IC50 (U87MG cells; [5]) [µM] | stability in the dark [1] |
| --- | --- | --- | --- | --- | --- | --- | --- | --- |
| Cc1ccc(-c2cc3[n+]4c(c2)-c2cccc[n+]2[Ir-3]42([Cl])([c]4ccsc4-c4n(Cc5ccc(C(F)(F)F)cc5)c5ccccc5[n+]42)[n+]2ccccc2-3)cc1.F[P-](F)(F)(F)(F)F [Ir1] | 2.9 | 16.4 ± 0.2 | 5.7 ± 0.7 | 4.4 | 3.5 | 4.3 ± 0.1 | 1.3 ± 0.1 | – |
| Cc1ccc(-c2cc3[n+]4c(c2)-c2cccc[n+]2[Ir-3]42([Cl])([c]4ccccc4-c4n(Cc5ccc(C(F)(F)F)cc5)c5ccccc5[n+]42)[n+]2ccccc2-3)cc1.F[P-](F)(F)(F)(F)F [Ir2] | 3.0 | 14.9 ± 0.5 | 5 ± 0.2 | 11.6 | 16 | 6.9 ± 0.4 | 0.43 ± 0.02 | – |
| Cc1ccc(-c2cc3[n+]4c(c2)-c2cccc[n+]2[Ir-3]42([Cl])([c]4ccccc4-c4n(C)c5ccccc5[n+]42)[n+]2ccccc2-3)cc1.F[P-](F)(F)(F)(F)F [Ir6] | 3.1 | 26 ± 5.1 | 8.3 ± 1.1 | 8.3 | 23 | 23.9 ± 3.1 | 1 ± 0.1 | – |
| Cc1ccc(-c2cc3[n+]4c(c2)-c2cccc[n+]2[Ir-3]42([Cl])([c]4cc5ccccc5cc4-c4n(C)c5ccccc5[n+]42)[n+]2ccccc2-3)cc1.F[P-](F)(F)(F)(F)F [Ir7] | 1.6 | 10.8 ± 1.6 | 6.7 ± 0.6 | 4.5 | 4.7 | 7.1 ± 0.4 | 1.5 ± 0.2 | – |
| Cc1ccc(-c2cc3[n+]4c(c2)-c2cccc[n+]2[Ir-3]42([Cl])([c]4ccsc4-c4n(C)c5ccccc5[n+]42)[n+]2ccccc2-3)cc1.F[P-](F)(F)(F)(F)F [Ir8] | 2.8 | 19.3 ± 0.7 | 7 ± 0.9 | 8.8 | 12 | 9.3 ± 0.9 | 0.8 ± 0.05 | – |
| Cc1ccc(-c2cc3[n+]4c(c2)-c2cccc[n+]2[Ir-3]42([Cl])([c]4c(ccc5c4OCO5)-c4n(C)c5ccccc5[n+]42)[n+]2ccccc2-3)cc1.F[P-](F)(F)(F)(F)F [Ir9] | 2.6 | 18.9 ± 0.2 | 7.3 ± 0.3 | 5.6 | 4.6 | 6.2 ± 0.7 | 1.3 ± 0.2 | – |
| COC(=O)c1ccc2c(c1)[n+]1c(n2Cc2ccc(C(F)(F)F)cc2)-c2cccc[c]2[Ir-3]123([Cl])[n+]1ccccc1-c1cc(-c4ccc(C)cc4)cc([n+]12)-c1cccc[n+]13.F[P-](F)(F)(F)(F)F [Ir10] | 3.9 | 41.3 ± 1.6 | 10.5 ± 0.6 | 4.8 | 15.5 | 34.2 ± 5.3 | 2.2 ± 0.9 | stable |

Reference: article PMC12261233, “Photoactivatable Cyclometalated Ir(III) Compound Penetrates the Blood-Brain Barrier in 3D Spheroidal and Advanced 3D Organoid Models of Inherently Resistant and Aggressive Brain Tumors” (ACS Pharmacology & Translational Science, 2025)
